Results as given in ChEMBL document CHEMBL4007434, “Indazole-Based Covalent Inhibitors To Target Drug-Resistant Epidermal Growth Factor Receptor” (J Med Chem, 2017).
Active and inactive are the calls of the source. The calls are words filed in the database; no cut-off is given here.

Experiments:
[1] = target: T1, Epidermal growth factor receptor (Homo sapiens, UniProt P00533, L858R/T790M)
[2] = target: T2, Epidermal growth factor receptor (Homo sapiens, UniProt P00533); type: ADME
[3] = target: T3, Epidermal growth factor receptor (Homo sapiens, UniProt P00533, L858R)
[4] = target: T2, Epidermal growth factor receptor; assay: Inhibition of wild-type EGFR in human A431 cells assessed as reduction in cell viability after 96 hrs by CellTiterGlo assay; type: ADME, cell-based
[5] = Inhibition of KRAS mutant in human A431 cells assessed as reduction in cell viability after 96 hrs by CellTiterGlo assay; type: cell-based; conditions: A-431, 96 h
[6] = Stability in human plasma assessed as compound remaining at 5 uM after 1 hr by LCMS analysis; type: ADME, cell-free; conditions: read-out: Stability
Liver [7] = assay: Stability in human liver microsomes at 3 uM up to 50 mins by LCMS analysis; type: ADME, microsome
[8] = Stability in mouse plasma assessed as compound remaining at 5 uM after 1 hr by LCMS analysis; type: ADME, cell-free; conditions: read-out: Stability
Liver [9] = assay: Stability in mouse liver microsomes at 3 uM up to 50 mins by LCMS analysis; type: ADME, microsome
[10] = test system: Epidermal growth factor receptor (Homo sapiens), P00533 [T790M]; assay: Binding affinity to EGFR T790M mutant (unknown origin) assessed as covalent adduct formation at 100 uM after 1 hr by ESI-MS analysis
[11] = test system: Epidermal growth factor receptor (Homo sapiens), P00533 [L858R,T790M,C797S]; assay: Inhibition of EGFR L858R/T790M/C797S triple mutant (unknown origin) by HTRF assay
[12] = test system: Epidermal growth factor receptor (Homo sapiens), P00533 [L858R]; assay: (§1) Reversible inhibition of human N-terminal GST-tagged EGFR L858R mutant cytoplasmic domain (669 to 1210 end amino acid residues) expressed in baculovirus expression system using TK peptide substrate preincubated for 2 to 90 mins followed by 6-fold dilution
[13] = test system: Epidermal growth factor receptor (Homo sapiens), P00533 [L858R,T790M]
[14] = target: T2, Epidermal growth factor receptor; assay: Ratio of Kinact to Ki for reversible inhibition of wild-type human N-terminal GST-tagged EGFR cytoplasmic domain (669 to 1210 end amino acid residues) expressed in baculovirus expression system
[15] = target: T1, Epidermal growth factor receptor; assay: (§2) Inhibition of EGF-induced EGFR L858R/T790M double mutant phosphorylation in human NCI-H1975 cells pre-incubated for 1 hr followed by EGF stimulation for 30 mins by Western blot analysis; type: cell-based
[16] = test system: Epidermal growth factor receptor (Homo sapiens), P00533 [L858R,T790M]; assay: as §2; type: cell-based
[17] = target: T1, Epidermal growth factor receptor; assay: Reversible inhibition of human N-terminal GST-tagged EGFR L858R/T790M double mutant cytoplasmic domain (669 to 1210 end amino acid residues) expressed in baculovirus expression system using TK peptide substrate preincubated for 2 to 90 mins followed by 6-fold dilution
[18] = test system: Epidermal growth factor receptor (Homo sapiens), P00533 [L858R]
[19] = target: T2, Epidermal growth factor receptor; assay: Reversible inhibition of wild-type human N-terminal GST-tagged EGFR cytoplasmic domain (669 to 1210 end amino acid residues) expressed in baculovirus expression system using TK peptide substrate assessed as inactivation constant preincubated for 2 to 90 mins followed by 6-fold dilution
[20] = test system: Epidermal growth factor receptor (Homo sapiens), P00533 [L858R,T790M]; assay: Inhibition of EGFR L858R/T790M double mutant in human NCI-H1975 cells assessed as reduction in EGF-induced Akt phosphorylation at S473 at 0.1 to 10 uM pre-incubated for 1 hr followed by EGF stimulation for 30 mins by Western blot analysis; type: cell-based
[21] = Inhibition of KRAS mutant in human H358 cells assessed as reduction in cell viability after 96 hrs by CellTiterGlo assay; type: cell-based; conditions: NCI-H358, 96 h
[22] = target: T2, Epidermal growth factor receptor; assay: Inhibition of EGF-induced wild-type EGFR phosphorylation in human A431 cells at 10 uM pre-incubated for 1 hr followed by EGF stimulation for 30 mins by Western blot analysis; type: cell-based; conditions: 0.5 h
[23] = target: T2, Epidermal growth factor receptor; assay: Reversible inhibition of wild-type human N-terminal GST-tagged EGFR cytoplasmic domain (669 to 1210 end amino acid residues) expressed in baculovirus expression system using TK peptide substrate preincubated for 2 to 90 mins followed by 6-fold dilution
[24] = target: T3, Epidermal growth factor receptor; assay: as §1
[25] = Ratio of IC50 for wild-type human N-terminal GST-tagged EGFR cytoplasmic domain (669 to 1210 end amino acid residues) expressed in baculovirus expression system to IC50 for human N-terminal GST-tagged EGFR L858R/T790M double mutant cytoplasmic domain (669 to 1210 end amino acid residues) expressed in baculovirus expression system
[26] = target: T1, Epidermal growth factor receptor; assay: Inhibition of EGFR L858R/T790M double mutant in human NCI-H1975 cells assessed as reduction in EGF-induced Akt phosphorylation at S473 pre-incubated for 1 hr followed by EGF stimulation for 30 mins by Western blot analysis; type: cell-based
[27] = target: T2, Epidermal growth factor receptor; assay: Inhibition of wild-type EGFR in human A431 cells assessed as reduction in EGF-induced Akt phosphorylation at S473 pre-incubated for 1 hr followed by EGF stimulation for 30 mins by Western blot analysis; type: cell-based
[28] = target: T2, Epidermal growth factor receptor; assay: Inhibition of EGF-induced wild-type EGFR phosphorylation in human A431 cells pre-incubated for 1 hr followed by EGF stimulation for 30 mins by Western blot analysis; type: cell-based
[29] = Ratio of EC50 for wild-type EGFR in human A431 cells to EC50 for EGFR L858R/T790M double mutant in human NCI-H1975 cells
[30] = Ratio of EC50 for wild-type EGFR in human A431 cells to EC50 for EGFR delE746_A750 mutant in human HCC827 cells

Structure (SMILES)	IC50 [1] [nM]	IC50 [2] [nM]	IC50 [3] [nM]	EC50 [4] [nM]	other results
C=CC(=O)Nc1cc(Nc2n[nH]c3cc(-c4cccc(N(C)C)c4)ccc23)c(OC)cc1N(C)CCN(C)C	22	48	10	3470	
C=CC(=O)Nc1cc(Nc2n[nH]c3cc(-c4cccc(F)c4)ccc23)c(OC)cc1N(C)CCN(C)C	5	5	1.6	2280	
C=CC(=O)Nc1cc(Nc2n[nH]c3cc(-c4ccc(N(C)C)cc4)ccc23)c(OC)cc1N(C)CCN(C)C	72	387	80	1410	
C=CC(=O)Nc1cc(Nc2n[nH]c3ccccc23)c(OC)cc1N(C)CCN(C)C	462	9270	3350	10400	
C=CC(=O)Nc1cc(Nc2n[nH]c3cc(-c4ccc5ccccc5c4)ccc23)c(OC)cc1N(C)CCN(C)C	85	312	25	1650	
C=CC(=O)Nc1cc(Nc2n[nH]c3cc(-c4cccc(C(F)(F)F)c4)ccc23)c(OC)cc1N(C)CCN(C)C	38	16	4.5	3540	
C=CC(=O)Nc1cc(Nc2n[nH]c3cc(-c4cncc5ccccc45)ccc23)c(OC)cc1N(C)CCN(C)C	6	2.8	1.1	2820	EC50 [5]: 659 nM
C=CC(=O)Nc1cc(Nc2n[nH]c3cc(-c4ccncc4)ccc23)c(OC)cc1N(C)CCN(C)C	5	30	14	3940	remaining at 1 h, 5 µM [6]: > 75%; Stability (Liver [7]): Stable; remaining at 1 h, 5 µM [8]: > 90%; Stability (Liver [9]): Stable; Activity [10]: Active; inhibition [11]: inactive; inhibition [12]: Active
C=CC(=O)Nc1cc(Nc2n[nH]c3cc(-c4ccc(F)cc4)ccc23)c(OC)cc1N(C)CCN(C)C	10	26	8.5	2170	
C=CC(=O)Nc1cc(Nc2n[nH]c3cc(-c4cn(C)c5ccccc45)ccc23)c(OC)cc1N(C)CCN(C)C	4.8	9.3	1.5	2210	Kinact [13]: 0.37 min⁻¹; remaining at 1 h, 5 µM [6]: > 75%; kinact/KI [14]: 20000 M⁻¹ s⁻¹; Stability (Liver [7]): Stable; remaining at 1 h, 5 µM [8]: > 90%; Stability (Liver [9]): Stable; EC50 [15]: 100 to 1000 nM; inhibition [16]: Dose-dependent effect; Activity [10]: Active; Ki [17]: 149 nM; inhibition [11]: inactive; Kinact [18]: 0.14 min⁻¹; kinact [19]: 0.00467 s⁻¹; inhibition [20]: Active; EC50 [21]: 2600 nM; inhibition (INH) [22]: Active; EC50 [5]: 2100 nM; Ki [23]: 236 nM; Ki [24]: 57 nM
CCC(=O)Nc1cc(Nc2n[nH]c3ccccc23)ccc1N(C)CCN(C)C	9730	> 10000	8470	> 30000	
C=CC(=O)Nc1cc(Nc2n[nH]c3ccc(-c4ccc5ccccc5c4)cc23)c(OC)cc1N(C)CCN(C)C	1.1	8.1	2.2	1770	Kinact [13]: 0.5 min⁻¹; remaining at 1 h, 5 µM [6]: > 75%; kinact/KI [14]: 20000 M⁻¹ s⁻¹; Ratio IC50 [25]: 8; Stability (Liver [7]): Stable; remaining at 1 h, 5 µM [8]: > 90%; Stability (Liver [9]): Stable; EC50 [15]: 1000 to 10000 nM; EC50 [26]: 1000 to 10000 nM; Activity [10]: Active; Ki [17]: 28 nM; inhibition [11]: inactive; Kinact [18]: 0.14 min⁻¹; kinact [19]: 0.003 s⁻¹; EC50 [27]: 1000 to 10000 nM; Ki [23]: 147 nM; Ki [24]: 105 nM; EC50 [28]: 1000 to 10000 nM
C=CC(=O)Nc1cc(Nc2n[nH]c3ccccc23)ccc1N(C)CCN(C)C	2630	> 10000	> 10000	5970	
C=CC(=O)Nc1cc(Nc2n[nH]c3cc(-c4cccnc4)ccc23)c(OC)cc1N(C)CCN(C)C	15	97	29	5670	
CCC(=O)Nc1cc(Nc2n[nH]c3ccccc23)c(OC)cc1N(C)CCN(C)C	> 10000	> 10000	> 10000	> 30000	
C=CC(=O)Nc1cc(Nc2n[nH]c3ccc(-c4cccc5ccccc45)cc23)c(OC)cc1N(C)CCN(C)C	2.7	33	12	2780	
C=CC(=O)Nc1cc(Nc2n[nH]c3ccc(-c4ccc(F)cc4)cc23)c(OC)cc1N(C)CCN(C)C	< 1	6.8	2	2070	remaining at 1 h, 5 µM [6]: > 75%; Stability (Liver [7]): Stable; remaining at 1 h, 5 µM [8]: > 90%; Stability (Liver [9]): Stable; EC50 [15]: 100 to 1000 nM; inhibition [16]: Dose-dependent effect; Activity [10]: Active; inhibition [11]: inactive; inhibition [20]: Active; inhibition (INH) [22]: Active; Ratio EC50 [29]: 3 - 4; Ratio EC50 [30]: 3 - 4; inhibition [12]: Active
